# Earlier results as cited in patent US6923993B2, “Process of isolating extract from the Euphorbia obesa plant and methods for using the same” (priority 2001, dated 2005).
# Assays:
# myelocytic leukemia = details: intravenous 1 mg; patients refractory to cytosine arabinoside, retinoic acid and other antileukemic drugs
# [1] = tested on: white blood cell (WBC) count; details: intravenous; patients with low WBC after cytotoxic chemotherapy
# [2] = doses of 0.5 to 1 mg
# [3] = tested on: HL-60 human promyelocytic leukemia cells; details: in vitro
# skin of mice = details: topically applied
smiles,measurement,setting,value
"CCCCCCCCCCCCCC(=O)O[C@@H]1[C@@H](C)[C@@]2(O)[C@@H](C=C(CO)C[C@]3(O)C(=O)C(C)=C[C@@H]23)[C@H]2C(C)(C)[C@]12OC(C)=O [TPA, 12-O-tetradecanoyl-13-phorbol acetate]",activity in myelocytic leukemia patients,myelocytic leukemia,pharmacological activity
same,WBC count and neutrophils in the blood,[1],increase in WBC count and neutrophilia
same,toxicity in vivo,[2],toxic effects
same,differentiation and DNA synthesis of HL-60 cells,[3],stimulate differentiation and inhibit DNA synthesis
same,effect on mouse skin,skin of mice,tumor promoter
